According to patent US20100056595A1, “Pyrazole Derivatives as P2X7 Modulators” (Glaxo Group Limited, priority 2007, published 2010):

Target: T1, human P2X7 receptor (Homo sapiens, UniProt Q99572)
T1 construct: expressed in transfected cells; host or cells: HEK293
T1 sequence (Q99572 1-595): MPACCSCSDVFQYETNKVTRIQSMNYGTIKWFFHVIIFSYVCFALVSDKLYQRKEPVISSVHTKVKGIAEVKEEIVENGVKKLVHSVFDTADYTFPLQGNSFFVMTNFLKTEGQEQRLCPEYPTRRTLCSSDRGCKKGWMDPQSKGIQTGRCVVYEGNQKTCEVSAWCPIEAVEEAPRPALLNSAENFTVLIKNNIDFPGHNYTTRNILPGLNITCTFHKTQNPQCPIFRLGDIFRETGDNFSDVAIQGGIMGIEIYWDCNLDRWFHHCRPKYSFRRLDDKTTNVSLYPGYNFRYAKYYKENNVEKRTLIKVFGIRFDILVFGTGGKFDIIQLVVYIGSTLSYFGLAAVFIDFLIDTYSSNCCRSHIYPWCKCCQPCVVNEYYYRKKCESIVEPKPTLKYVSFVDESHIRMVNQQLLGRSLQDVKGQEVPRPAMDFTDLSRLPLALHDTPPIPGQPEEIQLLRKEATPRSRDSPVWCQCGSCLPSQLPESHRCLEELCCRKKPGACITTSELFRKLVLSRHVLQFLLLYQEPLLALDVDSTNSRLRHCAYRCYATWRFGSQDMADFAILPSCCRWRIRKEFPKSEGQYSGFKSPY
Test: Ethidium Accumulation Assay
Type: cell-based
Settings: HEK293 cells expressing human recombinant P2X7 receptors; blocking ATP (1 mM) responses; read-out: pIC50 for human P2X7 receptor antagonist activity in the Ethidium Accumulation Assay (converted)
Experimental: Ethidium Accumulation Assay
Studies were performed using NaCl assay buffer of the following composition (in mM): 140 mM NaCl, HEPES 10, N-methyl-D-glucamine 5, KCl 5.6, D-glucose 10, CaCl2 0.5 (pH 7.4). HEK293 cells, expressing human recombinant P2X7 receptors, were grown in poly-L-lysine pretreated 96 well plates for 18-24 h. […] The cells were washed twice with 350 μl of assay buffer before addition of 50 μl of antagonist. The cells were then incubated at room temperature (19-21° C.) for 30 min before addition of ATP and ethidium (100 μM final assay concentration). The ATP concentration was chosen to be close to the EC80 for the receptor type and was 1 mM for studies on the human P2X7 receptor. Incubations were continued for 8 or 16 min and were terminated by addition of 25 μl of 1.3M sucrose containing 5 mM of the P2X7 receptor antagonist reactive black 5 (Aldrich). Cellular accumulation of ethidium was determined by measuring fluorescence (excitation wavelength of 530nm and emission wavelength of 620 nm) from below the plate with a Canberra Packard Fluorocount (Pangbourne, UK). Antagonist pIC50 values for blocking ATP responses were determined using iterative curve fitting techniques.

| SMILES | IC50 |
| --- | --- |
| Cc1cnn(C)c1CC(=O)NCc1cccc(C(F)(F)F)c1Cl [Example 2, N-{[2-chloro-3-(trifluoromethyl)phenyl]methyl}-2-(1,4-dimethyl-1H-pyrazol-5-yl)acetamide] | ≤ 0.1 µM |
| Cc1cnn(CC(F)(F)F)c1CC(=O)NCc1ccc(F)c(F)c1Cl [Example 3, N-[(2-chloro-3,4-difluorophenyl)methyl]-2-[4-methyl-1-(2,2,2-trifluoroethyl)-1H-pyrazol-5-yl]acetamide] | ≤ 0.1 µM |
| Cc1cnn(C)c1CC(=O)NCc1ccc(F)c(F)c1Cl [Example 4, N-[(2-chloro-3,4-difluorophenyl)methyl]-2-(1,4-dimethyl-1H-pyrazol-5-yl)acetamide] | ≤ 0.1 µM |
| Cn1nccc1CC(=O)NCc1cccc(C(F)(F)F)c1Cl [Example 5, N-{[2-chloro-3-(trifluoromethyl)phenyl]methyl}-2-(1-methyl-1H-pyrazol-5-yl)acetamide] | ≤ 0.1 µM |
| Cn1ncc(Cl)c1CC(=O)NCc1cccc(C(F)(F)F)c1Cl [Example 6, 2-(4-chloro-1-methyl-1H-pyrazol-5-yl)-N-{[2-chloro-3-(trifluoromethyl)phenyl]methyl}acetamide] | ≤ 0.1 µM |
| Cn1ncc(Br)c1CC(=O)NCc1cccc(C(F)(F)F)c1Cl [Example 7, 2-(4-Bromo-1-methyl-1H-pyrazol-5-yl)-N-{[2-chloro-3-(trifluoromethyl)phenyl]methyl}acetamide] | ≤ 0.1 µM |
| Cn1ncc(F)c1CC(=O)NCc1cccc(C(F)(F)F)c1Cl [Example 8, N-{[2-chloro-3-(trifluoromethyl)phenyl]methyl}-2-(4-fluoro-1-methyl-1H-pyrazol-5-yl)acetamide] | ≤ 0.1 µM |
| Cc1cnn(C)c1CC(=O)NCc1ccc(Cl)cc1Cl [Example 10] | ≤ 0.1 µM |
| Cn1ncc(Cl)c1CC(=O)NCc1ccc(F)cc1Cl [Example 14, N-[(2-Chloro-4-fluorophenyl)methyl]-2-(4-chloro-1-methyl-1H-pyrazol-5-yl)acetamide] | ≤ 0.1 µM |
| Cn1ncc(Cl)c1CC(=O)NCc1ccc(F)c(F)c1Cl [Example 15, N-[(2-Chloro-3,4-difluorophenyl)methyl]-2-(4-chloro-1-methyl-1H-pyrazol-5-yl)acetamide] | ≤ 0.1 µM |
| Cn1ncc(Cl)c1CC(=O)NCc1ccc(Cl)cc1Cl [Example 16, 2-(4-Chloro-1-methyl-1H-pyrazol-5-yl)-N-[(2,4-dichlorophenyl)methyl]acetamide] | ≤ 0.1 µM |
| Cn1ncc(F)c1CC(=O)NCc1ccc(F)c(F)c1Cl [Example 18, N-[(2-Chloro-3,4-difluorophenyl)methyl]-2-(4-fluoro-1-methyl-1H-pyrazol-5-yl)acetamide] | ≤ 0.1 µM |
| Cn1ncc(F)c1CC(=O)NCc1ccc(Cl)cc1Cl [Example 19, N-[(2,4-Dichlorophenyl)methyl]-2-(4-fluoro-1-methyl-1H-pyrazol-5-yl)acetamide] | ≤ 0.1 µM |
| Cn1ncc(I)c1CC(=O)NCc1ccc(Cl)cc1Cl [Example 20, N-[(2,4-Dichlorophenyl)methyl]-2-(4-iodo-1-methyl-1H-pyrazol-5-yl)acetamide] | ≤ 0.1 µM |
